Values quoted from earlier work as cited in patent US8440245B2, “Methods for making nutritional compositions comprising curcuminoids” (priority 2009, dated 2013).

Columns and labels:
[1] = percentage of ingested curcuminoid actually metabolized by the body
microtubule assembly = conditions: @ 40 μm

SMILES | Metabolic Recovery [1] | Inhibition of Microtubule Assembly (microtubule assembly)
O=C(/C=C/c1ccc(O)cc1)CC(=O)/C=C/c1ccc(O)cc1 [BDMC, bisdemethoxycurcumin] | ~75% | –
COc1cc(/C=C/C(=O)CC(=O)/C=C/c2ccc(O)c(OC)c2)ccc1O [Curcumin, curcumin] | – | 50% @
COc1cc(/C=C/C(O)=C/C(=O)/C=C/c2ccc(O)cc2)ccc1O [DMC, demethoxycurcumin] | ~50% | –
